Here are results for one compound from US20140205566A1, “CYCLIC NUCLEUOSIDE DERIVATIVES AND USES THEREOF” (NOVARTIS AG, priority 2012, published 2014).

The assay relates to dengue virus. Description: Intracellular nucleoside triphosphate concentration needed to inhibit 50% of viral production (NTP50) in PBMC. It is filed as cell-based. On the procedure: NTP50 is defined as the concentration of the nucleoside triphosphate (NTP) that will inhibit 50% of viral production. The NTP50 experiment was performed using cryopreserved PBMC as described above in the Dengue EC50 determination section. Briefly, PBMC was thawed and incubated in RPMI medium containing 2% Fetal Bovine serum (FBS), 1% Penicillin/Streptomycin supplemented with various concentration of a representative compound of the present invention (e.g., Example 2) up to 100 μM. After the intracellular conversion of Example 2 into corresponding nucleoside triphosphate reached steady state (24 hours at 37° C. in the incubator), the cells were spun down, washed with 0.9% NaCl solution and lyzed in RIPA buffer (50 mM Tris pH 7.5, 150 mM NaCl, 1% NP40) containing with protease and phosphotase inhibitor. The cells were further incubated at room temperature for complete lysis of the cells and the cell debris spun down at 13,000 g in at 4° C. for 20 minutes. The lysate was transferred into […] and the concentration of the nucleoside triphosphate was measured. The concentration of the nucleoside triphosphate was then plotted against the concentration of Example 2 and a curve of the concentration of the nucleoside triphosphate vs incubated Example 2 was generated using Michaelis-Menten Kinetics with the formula Y=A[Example 2]/B+[Example 2] where Y is the concentration of the nucleoside triphosphate and [Example 2] is the concentration of the compound Example 2. A and B were constants determined by best fitting. By EC50 of [Example 2] in the equation, the intracellular concentration of nucleoside triphosphate which corresponds to 50% reduction of the virus (NTP50) can be determined.
Since all compounds of the present invention would be converted to the same nucleoside triphosphate intracellularly (the structure of NTP is shown below), the NTP50 of all compounds of the present invention would be the same regardless which compound was used in the experiment. NTP50 for the compound Example 2 was measured to be 0.0016 μM in PBMC lysate from 1 million cells with 100 μL of lysis buffer. The Mean Corpuscular Volume of PBMC is approximately 0.3×10^−6 μL/per cell=0.3 μL/1 million cells. By using the literature of Simiele, M. et al. Antimicrob. Agents Chemother. 2011 55, 2976-2978, NTP50=0.0016×(100/0.3)=0.53 μM/1 million cells=0.53×0.3/1.0×10^6=0.159×10^−6 μmol/1 million cells. Thus, from the calculation, the intracellular nucleoside triphosphate concentration needed to inhibit 50% of viral production (NTP50) is around ˜200 fmol/1 million cells.

On to `CCOc1nc(N)nc2c1ncn2[C@@H]1O[C@@H]2CO[P@@](=O)(N[C@@H](C)C(=O)OC(C)C)O[C@H]2[C@@]1(C)F` [Example 2, (S)-isopropyl 2-(((2S,4aR,6R,7R,7aR)-6-(2-amino-6-ethoxy-9H-purin-9-yl)-7-fluoro-7-methyl-2-oxidotetrahydro-4H-furo[3,2-d][1,3,2]dioxaphosphinin-2-yl)amino)propanoate], for which the NTP50 reads like this: (in PBMC lysate from 1 million cells with 100 μL of lysis buffer) 0.0016 µM; (intracellular amount, calculated) 0.159×10^−6 μmol/1 million cells; (intracellular amount, rounded from the calculation) approximately 200 fmol/1 million cells; (intracellular, corrected with PBMC volume 0.3 μL/1 million cells) 0.53 μM/1 million cells.
